One may read the IC50 as the concentration that inhibits the measured activity by half. The term MIC denotes the least concentration at which growth counts as inhibited.

One test concerns the target fungal (fACC2) ACC2 (UniProt Q00955). Particulars: read-out: fACC2 IC50; fungal ACC2, ADP-Glo. (In general: In ADP-Glo the light output rises with the ADP produced.)
The test system of test [1] is C. parapsilosis ATCC 22019. As to the kind of experiment: Anti-Fungal (Candida) Activity Assay, broth microtiter MIC. In kind it is cell-based. Particulars: Lodderomyces parapsilosis, ATCC22019; 3 replicates, MIC recorded at 48 h; read-out: MIC C. parapsilosis ATCC 22019. In a few lines:
(§1)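 Strains plated from frozen stock onto Sabouraud dextrose agar, 35 °C, 24 h; colonies suspended directly in RPMI 1640/MOPS, density from standard curves; CLSI M27-A3 microdilution; 48 h read, visual vs growth control.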

For another test, the system named is C. albicans ATCC 90028. Described as above. It is filed as cell-based. Particulars: ATCC90028, 3 replicates, MIC recorded at 48 h, read-out: MIC C. albicans ATCC 90028. The method in brief: as §1
The test system of the next test is C. krusei ATCC 6258. The test is described as above. In kind it is cell-based. Particulars: Pichia kudriavzevii, ATCC6258; 3 replicates, MIC recorded at 48 h; read-out: MIC C. krusei ATCC 6258. The method in brief:
as §1

In another test the target is human (hACC2) ACC2 (Homo sapiens, UniProt O00763). In words: In vitro Acetyl-CoA Carboxylase (ACC) inhibition assay (ADP-Glo), hACC2. It is filed as biochemical. Here is the method:
The detailed procedure is as follows. […] 10 μL ADP glo reagent was added. […] 20 μL kinase detection reagent was added.
“NA” stands for “not assayed.”

Converted amounts (≈) assume the structure as drawn. Where only a bound is given, the exact number is not on record here.

Chain of fungal (fACC2) ACC2 (Q00955 whole entry): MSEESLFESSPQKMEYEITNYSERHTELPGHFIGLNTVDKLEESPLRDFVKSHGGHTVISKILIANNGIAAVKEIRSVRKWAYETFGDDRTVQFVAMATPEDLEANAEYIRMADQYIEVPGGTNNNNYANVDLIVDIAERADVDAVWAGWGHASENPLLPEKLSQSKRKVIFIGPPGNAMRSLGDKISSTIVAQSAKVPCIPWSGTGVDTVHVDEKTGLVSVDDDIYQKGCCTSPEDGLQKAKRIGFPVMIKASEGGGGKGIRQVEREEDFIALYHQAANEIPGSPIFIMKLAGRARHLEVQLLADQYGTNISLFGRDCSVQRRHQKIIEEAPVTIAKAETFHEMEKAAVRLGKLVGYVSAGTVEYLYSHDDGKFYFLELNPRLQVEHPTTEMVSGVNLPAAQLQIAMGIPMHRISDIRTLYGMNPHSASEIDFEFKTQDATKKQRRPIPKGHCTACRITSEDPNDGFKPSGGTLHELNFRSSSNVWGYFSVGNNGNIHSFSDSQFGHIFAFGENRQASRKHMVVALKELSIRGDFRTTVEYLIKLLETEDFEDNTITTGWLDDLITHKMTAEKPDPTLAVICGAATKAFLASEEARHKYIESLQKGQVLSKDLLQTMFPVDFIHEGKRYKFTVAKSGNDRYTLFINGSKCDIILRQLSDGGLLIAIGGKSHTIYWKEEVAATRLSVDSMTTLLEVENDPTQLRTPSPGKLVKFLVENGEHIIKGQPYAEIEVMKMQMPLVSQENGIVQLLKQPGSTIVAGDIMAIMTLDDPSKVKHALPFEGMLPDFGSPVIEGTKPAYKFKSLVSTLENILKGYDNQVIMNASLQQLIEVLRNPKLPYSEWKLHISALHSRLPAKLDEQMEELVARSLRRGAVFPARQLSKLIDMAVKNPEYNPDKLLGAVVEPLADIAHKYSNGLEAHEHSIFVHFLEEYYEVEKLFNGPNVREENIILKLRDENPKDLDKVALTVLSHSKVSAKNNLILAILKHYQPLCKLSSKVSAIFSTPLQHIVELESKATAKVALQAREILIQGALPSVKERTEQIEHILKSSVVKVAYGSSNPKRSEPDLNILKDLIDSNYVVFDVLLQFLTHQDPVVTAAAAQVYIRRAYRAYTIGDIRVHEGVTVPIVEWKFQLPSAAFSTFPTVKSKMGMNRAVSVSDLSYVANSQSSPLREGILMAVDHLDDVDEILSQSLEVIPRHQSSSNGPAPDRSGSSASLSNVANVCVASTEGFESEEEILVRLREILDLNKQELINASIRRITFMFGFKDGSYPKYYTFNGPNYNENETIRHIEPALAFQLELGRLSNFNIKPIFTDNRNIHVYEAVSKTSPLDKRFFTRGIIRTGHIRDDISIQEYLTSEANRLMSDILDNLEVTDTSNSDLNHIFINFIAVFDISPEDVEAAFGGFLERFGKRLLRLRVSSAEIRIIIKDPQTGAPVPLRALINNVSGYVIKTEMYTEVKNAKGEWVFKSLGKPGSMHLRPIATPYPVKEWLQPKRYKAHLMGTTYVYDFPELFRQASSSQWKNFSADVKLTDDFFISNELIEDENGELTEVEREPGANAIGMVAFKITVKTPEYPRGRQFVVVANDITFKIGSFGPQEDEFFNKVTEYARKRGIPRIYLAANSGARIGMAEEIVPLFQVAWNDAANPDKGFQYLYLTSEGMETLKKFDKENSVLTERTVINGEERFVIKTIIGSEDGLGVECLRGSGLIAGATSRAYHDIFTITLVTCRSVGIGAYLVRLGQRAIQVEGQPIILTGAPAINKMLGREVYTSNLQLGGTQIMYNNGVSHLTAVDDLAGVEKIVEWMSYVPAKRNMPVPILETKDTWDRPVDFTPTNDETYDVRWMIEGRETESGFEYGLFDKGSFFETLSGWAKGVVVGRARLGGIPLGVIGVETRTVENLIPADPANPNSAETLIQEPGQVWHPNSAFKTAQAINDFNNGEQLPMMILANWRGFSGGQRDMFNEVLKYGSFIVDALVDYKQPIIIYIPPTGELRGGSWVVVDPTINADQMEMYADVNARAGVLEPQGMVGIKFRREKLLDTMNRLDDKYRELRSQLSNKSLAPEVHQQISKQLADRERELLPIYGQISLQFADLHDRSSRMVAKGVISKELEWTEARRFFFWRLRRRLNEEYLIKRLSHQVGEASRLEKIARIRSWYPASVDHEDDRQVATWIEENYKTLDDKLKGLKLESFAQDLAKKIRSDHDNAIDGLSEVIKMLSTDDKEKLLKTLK
Chain of human (hACC2) ACC2 (O00763 whole entry): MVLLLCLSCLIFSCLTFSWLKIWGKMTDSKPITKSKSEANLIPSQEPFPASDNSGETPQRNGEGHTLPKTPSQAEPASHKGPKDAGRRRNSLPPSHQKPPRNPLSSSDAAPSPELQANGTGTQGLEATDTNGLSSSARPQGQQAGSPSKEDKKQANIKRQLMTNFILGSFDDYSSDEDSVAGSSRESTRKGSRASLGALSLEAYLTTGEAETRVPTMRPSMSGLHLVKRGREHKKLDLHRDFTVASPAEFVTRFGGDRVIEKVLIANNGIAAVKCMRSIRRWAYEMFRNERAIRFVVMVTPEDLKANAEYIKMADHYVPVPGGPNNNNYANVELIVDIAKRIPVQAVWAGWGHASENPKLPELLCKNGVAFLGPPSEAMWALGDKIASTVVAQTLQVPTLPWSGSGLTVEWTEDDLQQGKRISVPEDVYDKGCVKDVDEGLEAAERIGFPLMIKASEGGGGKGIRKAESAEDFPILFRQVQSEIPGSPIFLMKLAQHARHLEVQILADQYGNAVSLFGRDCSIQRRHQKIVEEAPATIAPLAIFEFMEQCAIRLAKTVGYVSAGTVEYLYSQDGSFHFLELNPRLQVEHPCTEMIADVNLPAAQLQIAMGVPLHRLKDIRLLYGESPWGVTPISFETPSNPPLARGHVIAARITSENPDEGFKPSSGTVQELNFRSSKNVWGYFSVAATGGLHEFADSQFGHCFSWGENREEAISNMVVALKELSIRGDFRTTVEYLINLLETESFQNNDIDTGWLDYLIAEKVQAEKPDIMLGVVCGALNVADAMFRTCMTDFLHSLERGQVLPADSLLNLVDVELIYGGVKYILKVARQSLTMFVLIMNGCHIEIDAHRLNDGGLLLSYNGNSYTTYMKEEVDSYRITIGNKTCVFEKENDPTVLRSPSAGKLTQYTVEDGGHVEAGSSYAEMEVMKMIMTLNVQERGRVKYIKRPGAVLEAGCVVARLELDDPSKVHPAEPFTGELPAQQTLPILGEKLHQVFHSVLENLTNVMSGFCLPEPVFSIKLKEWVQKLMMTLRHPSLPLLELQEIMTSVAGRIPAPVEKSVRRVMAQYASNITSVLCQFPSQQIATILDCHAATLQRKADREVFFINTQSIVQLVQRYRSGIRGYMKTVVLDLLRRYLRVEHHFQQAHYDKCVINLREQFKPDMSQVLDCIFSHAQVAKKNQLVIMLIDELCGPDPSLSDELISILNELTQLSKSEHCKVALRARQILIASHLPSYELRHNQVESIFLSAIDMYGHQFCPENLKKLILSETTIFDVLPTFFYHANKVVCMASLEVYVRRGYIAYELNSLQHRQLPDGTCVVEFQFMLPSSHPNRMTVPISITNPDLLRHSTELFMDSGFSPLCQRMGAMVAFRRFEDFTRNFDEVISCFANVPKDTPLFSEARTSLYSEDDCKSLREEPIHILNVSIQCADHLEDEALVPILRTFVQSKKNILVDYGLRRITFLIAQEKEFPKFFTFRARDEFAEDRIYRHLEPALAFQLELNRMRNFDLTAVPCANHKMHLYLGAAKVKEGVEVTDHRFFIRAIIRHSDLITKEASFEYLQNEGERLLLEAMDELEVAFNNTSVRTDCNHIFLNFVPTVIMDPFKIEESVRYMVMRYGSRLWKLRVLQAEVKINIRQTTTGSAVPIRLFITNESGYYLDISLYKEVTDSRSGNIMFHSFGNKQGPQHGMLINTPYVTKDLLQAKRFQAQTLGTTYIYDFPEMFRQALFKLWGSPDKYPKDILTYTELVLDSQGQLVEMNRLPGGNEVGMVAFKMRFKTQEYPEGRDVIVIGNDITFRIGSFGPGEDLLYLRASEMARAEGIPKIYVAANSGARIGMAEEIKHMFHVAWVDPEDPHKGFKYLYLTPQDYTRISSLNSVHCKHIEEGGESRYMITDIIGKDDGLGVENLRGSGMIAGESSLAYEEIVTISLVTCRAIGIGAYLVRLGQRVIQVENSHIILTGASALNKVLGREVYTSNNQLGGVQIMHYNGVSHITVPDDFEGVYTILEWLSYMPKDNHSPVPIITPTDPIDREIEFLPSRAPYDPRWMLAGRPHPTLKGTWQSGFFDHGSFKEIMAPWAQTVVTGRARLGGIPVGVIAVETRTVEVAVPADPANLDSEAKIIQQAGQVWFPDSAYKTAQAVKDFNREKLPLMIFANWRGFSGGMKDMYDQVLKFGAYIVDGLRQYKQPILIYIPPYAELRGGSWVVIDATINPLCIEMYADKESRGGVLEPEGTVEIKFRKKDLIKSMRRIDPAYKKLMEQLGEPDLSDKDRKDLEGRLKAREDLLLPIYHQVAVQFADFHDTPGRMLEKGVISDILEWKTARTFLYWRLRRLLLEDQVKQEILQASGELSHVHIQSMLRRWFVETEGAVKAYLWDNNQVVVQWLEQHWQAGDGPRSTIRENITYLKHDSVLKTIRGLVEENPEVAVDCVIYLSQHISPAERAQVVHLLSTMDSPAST

Consider `COCCO[C@@H](Cn1c(=O)n(C(C)C(=O)O)c(=O)c2c(C)c(-n3cccn3)sc21)c1cc(F)ccc1OC` (some centres unmarked) [Compound I-57], for which the concentration for half-maximal inhibition (IC50) at fungal (fACC2) ACC2 and at human (hACC2) ACC2 was 10 to 40 nM each time. Also, the MIC (in test [1]; in the test on C. albicans ATCC 90028; in the test on C. krusei ATCC 6258) was greater than 4.1 µg/mL each time.

`Cc1c(-n2cccn2)sc2c1c(=O)n(C(C)(C)C(=O)NC(C)C)c(=O)n2C[C@H](OC1CCOCC1)c1cc(F)ccc1OCC1COC1` [Compound I-50]: the values for the IC50 at fungal (fACC2) ACC2 and at human (hACC2) ACC2 were 0.6 to 3 nM and 3 to 10 nM, respectively. Also, the MIC (in test [1]; with C. albicans ATCC 90028; in the test on C. krusei ATCC 6258) was greater than 4.1 µg/mL each time.

Turning to `COCCO[C@@H](Cn1c(=O)n([C@H](C)C(=O)NC(C)C)c(=O)c2c(C)c(-n3cccn3)sc21)c1cc(F)ccc1OC` [Compound I-74, (R)-2-(1-((R)-2-(5-fluoro-2-methoxyphenyl)-2-(2-methoxy-ethoxy)ethyl)-5-methyl-2,4-dioxo-6-(1H-pyrazol-1-yl)-1,4-dihydrothieno[2,3-d]pyrimidin-3(2H)-yl)-N-isopropylpropanamide], the results for the IC50 on fungal (fACC2) ACC2 and against human (hACC2) ACC2 were 10 to 40 nM and greater than 40 nM, respectively. In addition, the MIC (in test [1]; in the test with C. albicans ATCC 90028; with C. krusei ATCC 6258) was greater than 4.1 µg/mL each time.

Regarding `COCCO[C@@H](Cn1c(=O)n([C@@H](C)C(=O)NC(C)C)c(=O)c2c(C)c(-n3cccn3)sc21)c1cc(F)ccc1OC` [Compound I-73, (S)-2-(1-((R)-2-(5-fluoro-2-methoxyphenyl)-2-(2-methoxy-ethoxy)ethyl)-5-methyl-2,4-dioxo-6-(1H-pyrazol-1-yl)-1,4-dihydrothieno[2,3-d]pyrimidin-3(2H)-yl)-N-isopropylpropanamide], the IC50 at fungal (fACC2) ACC2 was in the range of 0.6 to 3 nM; on human (hACC2) ACC2 it was 3 to 10 nM. For the same molecule, the results for the MIC (in test [1]; in the test on C. albicans ATCC 90028; in the test with C. krusei ATCC 6258) were 2.1 to 4 µg/mL (≈ 3.57 to 6.81 µM), 2.1 to 4 µg/mL (≈ 3.57 to 6.81 µM) and greater than 4.1 µg/mL, respectively.

Regarding `COc1ccc(F)cc1[C@H](Cn1c(=O)n(C(C)C(=O)N2CCCC2)c(=O)c2c(C)c(-n3cccn3)sc21)OCC(C)(C)O` (some centres unmarked) [Compound I-66], the IC50 was 0.6 to 3 nM at fungal (fACC2) ACC2 and 10 to 40 nM on human (hACC2) ACC2. Also, the MIC (in test [1]; in the test on C. albicans ATCC 90028; with C. krusei ATCC 6258) was greater than 4.1 µg/mL each time.

`Cc1c(-n2cccn2)sc2c1c(=O)n(C(C)(C)C(=O)N1CCCC1)c(=O)n2C[C@H](OC1CCOCC1)c1cc(F)ccc1OCCO` [Compound I-51]: the IC50 was 0.6 to 3 nM on fungal (fACC2) ACC2 and 3 to 10 nM on human (hACC2) ACC2. In addition, the values for the MIC (in test [1]; in the test on C. albicans ATCC 90028; in the test on C. krusei ATCC 6258) were 2.1 to 4 µg/mL (≈ 3.14 to 5.97 µM), 1.1 to 2 µg/mL (≈ 1.64 to 2.99 µM) and 0.25 to 1 µg/mL (≈ 0.373 to 1.49 µM), respectively.

Take `COc1ccc(F)cc1[C@H](Cn1c(=O)n(C(C)C(N)=O)c(=O)c2c(C)c(-n3cccn3)sc21)OCCO` (some centres unmarked) [Compound I-61]: the IC50 was 0.6 to 3 nM at fungal (fACC2) ACC2 and 10 to 40 nM on human (hACC2) ACC2. For the same molecule, the minimum inhibitory concentration (MIC) (in test [1]; in the test with C. albicans ATCC 90028; in the test with C. krusei ATCC 6258) was greater than 4.1 µg/mL in each case.

The values above are taken from patent US10941158B2, “Pyrazole ACC inhibitors and uses thereof” (Gilead Apollo, LLC, priority 2015, dated 2021).
